From patent EP0286926A2, “Semi-synthetic rhodomycins, method for their preparation and their use as cytostatics” (BEHRINGWERKE Aktiengesellschaft, priority 1987, dated 1988) come the findings set out here.

SMILES strings stand for the structures. In brackets after ≈: the same amount, converted by molar mass. Like-named read-outs stand apart in the source and are kept apart here. Some results are limits rather than exact numbers.

This assay deals with L1210 Leukämiezellen. The experiment in a line: Colony formation of L1210 leukemia cells in soft agar. It counts as cell-based, Maus. As to conditions: for IC50: Mus musculus; for zytostatische Wirksamkeit: statement in words, compared with Adriamycin. From the text: Die zytostatische Wirksamkeit der erfindungsgemäßen Verbindungen wurde anhand von L1210 Leukämiezellen der Maus getestet. Hierzu wurde die Koloniebildung von L1210 Leukämiezellen in Agarplatten herangezogen. Diese Methode dient zum Nachweis des Einflusses der Testsubstanzen auf das Wachstumsverhalten der Zellen nach Inkubation von 1 Stunde oder über mehrere Generationen. Bei einer Zelzykluszeit von 10-12 Stunden werden dabei in der Testzeit von 7 Tagen etwa 14 aufeinanderfolgende Generationen beobachtet. Die erfindungsgemäßen zytostatisch wirksamen Substanzen bewirken in diesem Test eine Reduktion der zu beobachtenden Koloniezahl gegenüber einer unbehandelten Kontrollprobe.
Einzelheiten des Testverfahrens ergeben sich aus der nachfolgenden Verfahrensweise zur Ermittlung der Koloniebildung.
Verfahrensweise zur Ermittlung der Koloniebildung von L1210 Leukämiezellen in Soft-Agar
500 Leukämiezellen pro Platte wurden mit unterschiedlichen Konzentrationen der Testsubstanz 1 Stunde bei 37°C inkubiert. Anschließend wurden die Zellen zweimal mit McCoy5A-Medium gewaschen und schließlich in Petrischalen nach Zugabe von 0,3 % Agar ausgegossen. Kontrollen wurden lediglich mit frischem Medium inkubiert. Anstelle der einstündigen Inkubation wurden in manchen Fällen unterschiedliche Konzentrationen und Testsubstanzen der oberen Agarschicht zugemischt, um so eine kontinuierliche Exposition der Zellen über die gesamte Inkubationszeit zu erreichen. Nach Erstarren des Agars wurden die Platten im Brutschrank 7 Tage bei 37°C inkubiert (5 Vol.-% CO₂, 94 % relative Luftfeuchtigkeit). Anschließend wurde die Zahl der entstandenen Kolonien mit einem Durchmesser von mehr als 60 µm gezählt. Die Ergebnisse wurden angegeben als Koloniezahl in behandelten Agarplatten in Prozent der unbehandelten Kontrolle. Aus der so erhaltenen Dosiswirkungskruve wurde die IC₅₀ als Maß für die Wirksamkeit der Substanz ermittelt. Die Ergebnisse für die hier beschriebenen Verbindungen im Vergleich zu Adriamycin sind in der nachfolgenden Tabelle 1 zusammengefaßt.

Where [1] appears, read: L1210, 168 h, read-out: Dauerinkubation IC50.
[2] abbreviates: L1210, read-out: 1h-Inkubation IC50.
The mark [3] stands for this setting: L1210, 168 h, continuous exposure: substance mixed into upper agar layer for the whole 7-day incubation at 37°C, colonies > 60 µm counted, percent of untreated control, read-out: Dauerinkubation IC50.
[4] abbreviates: L1210, 1 h incubation with substance at 37°C, cells washed twice, then plated in 0,3 % agar for 7 days, colonies > 60 µm counted, read-out: 1h-Inkubation IC50.
The mark [5] stands for this setting: 1 h incubation with substance at 37°C, cells washed twice, then plated in 0,3 % agar for 7 days, colonies > 60 µm counted.
Setting [6] is: continuous exposure: substance mixed into upper agar layer for the whole 7-day incubation at 37°C, colonies > 60 µm counted, percent of untreated control.

Take `COc1cccc2c1C(=O)c1c(O)c3c(c(O)c1C2=O)C[C@@](O)(C(=O)CO)C[C@@H]3O[C@H]1C[C@H](N)[C@H](O)[C@H](C)O1` [Adriamycin, reference compound]: the IC50 (usually the point on the concentration scale where inhibition reaches its midpoint) under setting [1] was 0.02 µg/mL (≈ 0.0368 µM) and the IC50 under setting [2] amounted to 0.04 µg/mL (≈ 0.0736 µM).

Turning to `CC[C@@]1(O)C[C@H](O)c2c(O)c3c(c(O)c2[C@H]1O[C@H]1C[C@H](NC(=O)C(F)(F)F)[C@@H](OC(=O)c2ccc([N+](=O)[O-])cc2)[C@H](C)O1)C(=O)c1cccc(O)c1C3=O` [Beispiel 8, 10-0-(4-0-Paranitrobenzoyl-3-N-trifluor-acetyl-α-L-acosaminyl)-β-rhodomycinon], the IC50 is greater than 1 µg/mL under setting [3] and greater than 1 µg/mL under setting [4].

Take `CC[C@@]1(O)C[C@H](O)c2c(O)c3c(c(O)c2[C@H]1O[C@H]1C[C@H](NC(=O)C(F)(F)F)[C@H](OC(=O)c2ccc([N+](=O)[O-])cc2)[C@H](C)O1)C(=O)c1cccc(O)c1C3=O` [Beispiel 9, 10-0-(4-0-Paranitrobenzoyl-3-N-trifluoracetyl-α-L-daunosaminyl)-β-rhodomycinon]: the IC50 is 0.6 µg/mL (≈ 0.789 µM) under setting [3] and greater than 10 µg/mL under setting [4].

Take `CC[C@@]1(O)C[C@H](O)c2c(O)c3c(c(O)c2[C@H]1O[C@H]1C[C@H](N)[C@@H](O)[C@H](C)O1)C(=O)c1cccc(O)c1C3=O` [Beispiel 10, 10-0-α-L-Acosaminyl-β-rhodomycinon]: the IC50 runs as follows: under setting [3], 0.9 µg/mL (≈ 1.75 µM); under setting [4], 6.5 µg/mL (≈ 12.6 µM).

For the compound `CC[C@@]1(O)C[C@H](O)c2c(O)c3c(c(O)c2[C@H]1O[C@H]1C[C@H](N)[C@H](O)[C@H](C)O1)C(=O)c1cccc(O)c1C3=O` [Beispiel 11, 10-0-α-L-Daunosaminyl-β-rhodomycinon], the IC50 is greater than 1 µg/mL under setting [3] and greater than 1 µg/mL under setting [4].

On to `CC[C@@]1(O)C[C@H](O)c2c(O)c3c(c(O)c2[C@H]1O[C@H]1C[C@H](N(C)C)[C@@H](O)[C@H](C)O1)C(=O)c1cccc(O)c1C3=O` [Beispiel 12, 10-0-(3-N,N-Dimethyl-α-L-acosaminyl)-β-rhodomycinon], for which the IC50 was 0.5 µg/mL (≈ 0.92 µM) under setting [3] and greater than 1 µg/mL under setting [4].

For the compound `CC[C@@]1(O)C[C@H](O[C@H]2C[C@H](NC(=O)C(F)(F)F)[C@@H](OC(=O)c3ccc([N+](=O)[O-])cc3)[C@H](C)O2)c2c(O)c3c(c(O)c2[C@H]1OC(=O)C(F)(F)F)C(=O)c1cccc(O)c1C3=O` [Beispiel 13, 7-0-(4-0-Paranitrobenzoyl-3-N-trifluoracetyl-α-L-acosaminyl)-10-0-trifluoracetyl-β-rhodomycinon], the IC50 is 0.03 µg/mL (≈ 0.035 µM) under setting [3] and greater than 1 µg/mL under setting [4].

As for `CC[C@@]1(O)C[C@H](O[C@H]2C[C@H](NC(=O)C(F)(F)F)[C@@H](OC(=O)c3ccc([N+](=O)[O-])cc3)[C@H](C)O2)c2c(O)c3c(c(O)c2[C@H]1O)C(=O)c1cccc(O)c1C3=O` [Beispiel 14, 7-0-(4-0-Paranitrobenzoyl-3-N-trifluoracetyl-α-L-acosaminyl)-β-rhodomycinon], the IC50 is, setting by setting: under setting [3], 0.024 µg/mL (≈ 0.0316 µM); under setting [4], greater than 1 µg/mL.

As for `CC[C@@]1(O)C[C@H](O[C@H]2C[C@H](N)[C@@H](O)[C@H](C)O2)c2c(O)c3c(c(O)c2[C@H]1O)C(=O)c1cccc(O)c1C3=O` [Beispiel 15, 7-0-α-L-Acosaminyl-β-rhodomycinon], the “zytostatische Wirksamkeit” value is recorded as “vergleichbar”. Besides, under setting [3], the IC50 turned out to be 0.004 µg/mL (≈ 0.00776 µM). Also, under setting [4], the IC50 was 0.02 µg/mL (≈ 0.0388 µM).

Consider `CC[C@@]1(O)C[C@H](O[C@H]2C[C@H](N(C)C)[C@@H](O)[C@H](C)O2)c2c(O)c3c(c(O)c2[C@H]1O)C(=O)c1cccc(O)c1C3=O` [Beispiel 16, 7-0-(3-N,N-Dimethyl-α-L-acosaminyl)-β-rhodomycinon], for which the “zytostatische Wirksamkeit” value is “vergleichbar”. Under setting [1], the IC50 is 0.006 µg/mL (≈ 0.011 µM). Besides, the IC50 under setting [2] was 0.02 µg/mL (≈ 0.0368 µM).

In the case of `CC[C@@]1(O)C[C@H](O[C@H]2C[C@H](NCC#N)[C@H](O)[C@H](C)O2)c2c(O)c3c(c(O)c2[C@H]1O)C(=O)c1cccc(O)c1C3=O` [Beispiel 17, 7-O-(3-N-Cyanomethyl-α-L-daunosaminyl)-β-rhodomycinon], the IC50 reads like this: under setting [1], 0.004 µg/mL (≈ 0.00721 µM); under setting [2], 0.09 µg/mL (≈ 0.162 µM).

As to `CC[C@@]1(O)C[C@H](O[C@H]2C[C@H](NC(=O)C(F)(F)F)[C@H](OC(=O)c3ccc([N+](=O)[O-])cc3)[C@H](C)O2)c2c(O)c3c(c(O)c2[C@H]1OC(=O)C(F)(F)F)C(=O)c1cccc(O)c1C3=O` [Beispiel 18, 7-O-(4-O-Paranitrobenzoyl-3-N-trifluoracetyl-α-L-daunosaminyl)-10-O-trifluoracetyl-β-rhodomycinon], the IC50 under setting [3] was found to be 0.13 µg/mL (≈ 0.152 µM) and the IC50 under setting [4] was greater than 1 µg/mL.

With `CC[C@@]1(O)C[C@H](O[C@H]2C[C@H](NC(=O)C(F)(F)F)[C@H](OC(=O)c3ccc([N+](=O)[O-])cc3)[C@H](C)O2)c2c(O)c3c(c(O)c2[C@H]1O)C(=O)c1cccc(O)c1C3=O` [Beispiel 19, 7-O-(4-O-Paranitrobenzoyl-3-N-trifluoracetyl-α-L-daunosaminyl)-β-rhodomycinon], the IC50 runs as follows: under setting [3], 0.11 µg/mL (≈ 0.145 µM); under setting [4], greater than 1 µg/mL.

For `CC[C@@]1(O)C[C@H](O[C@H]2C[C@H](N)[C@H](O)[C@H](C)O2)c2c(O)c3c(c(O)c2[C@H]1OC1CCCCO1)C(=O)c1cccc(O)c1C3=O` (stereo partly drawn) [Beispiel 21, 7-O-α-L-Daunosaminyl-10-O-tetrahydropyranyl-β-rhodomycinon], under setting [5], the “1h-Inkubation IC50” value is greater than 1 µg/mL. In addition, under setting [6], the “Dauerinkubation IC50” value was found to be 0.5 µg/mL.

For the compound `CC[C@@]1(O)C[C@H](O[C@@H]2O[C@@H](C)[C@@H](OC(C)=O)[C@@H](OC(C)=O)[C@H]2I)c2c(O)c3c(c(O)c2[C@H]1OC1CCCCO1)C(=O)c1cccc(O)c1C3=O` (stereo partly drawn) [Beispiel 24, 7-O-(3,4-Di-O-acetyl-2,6-didesoxy-2-iodo-α-L-talopyranosyl)-10-O-tetrahydropyranyl-β-rhodomycinon], the “1h-Inkubation IC50” value under setting [5] is greater than 1 µg/mL. For the same compound, under setting [6], the “Dauerinkubation IC50” value was greater than 1 µg/mL.

On to `CC[C@@]1(O)C[C@H](O[C@@H]2O[C@@H](C)[C@H](OC(C)=O)[C@@H](OC(C)=O)[C@H]2I)c2c(O)c3c(c(O)c2[C@H]1OC1CCCCO1)C(=O)c1cccc(O)c1C3=O` (stereo partly drawn) [Beispiel 25, 7-O-(3,4-Di-O-acetyl-2,6-didesoxy-2-iodo-α-L-mannopyranosyl)-10-O-tetrahydropyranyl-β-rhodomycinon], for which the “1h-Inkubation IC50” value under setting [5] is greater than 1 µg/mL. Also, the “Dauerinkubation IC50” value under setting [6] was greater than 1 µg/mL.

As for `CC[C@@]1(O)C[C@H](O[C@H]2C[C@H](NC(=O)C(F)(F)F)[C@H](OC(=O)c3ccc([N+](=O)[O-])cc3)[C@H](C)O2)c2c(O)c3c(c(O)c2[C@H]1O[C@@H]1C[C@H](NC(=O)C(F)(F)F)[C@H](OC(=O)c2ccc([N+](=O)[O-])cc2)[C@H](C)O1)C(=O)c1cccc(O)c1C3=O` [Beispiel 27, 7,10-Di-O-(4-O-paranitrobenzoyl-3-N-trifluoracetyl-α-L-daunosaminyl)-β-rhodomycinon], the “1h-Inkubation IC50” value under setting [5] was greater than 1 µg/mL. The “Dauerinkubation IC50” value under setting [6] is greater than 1 µg/mL.

For the compound `CC[C@@]1(O)C[C@H](O[C@H]2C[C@H](NC(=O)C(F)(F)F)[C@H](OC(C)=O)[C@H](C)O2)c2c(O)c3c(c(O)c2[C@H]1O[C@H]1C[C@H](NC(=O)C(F)(F)F)[C@H](OC(C)=O)[C@H](C)O1)C(=O)c1cccc(O)c1C3=O` [Beispiel 28, 7,10-Di-O-(4-O-acetyl-3-N-trifluoracetyl-α-L-daunosaminyl)-β-rhodomycinon], the IC50 reads like this: under setting [3], greater than 1 µg/mL; under setting [4], greater than 1 µg/mL.
